This is an account of results in patent US4193913A, “Thermoplastic vinyl chloride polymers containing monoalkyl-tin-stabilizers” (priority 1978, dated 1980).

Data set [1] concerns rats. The experiment in a line: No effect level, 90-day dietary administration to rats with 28-day recovery. Format: in vivo, rat. The following applies: for no effect level (dietary concentration): diet. How it is done:
Compound III was administered in the diet to groups of 30 (groups 2 and 3) and 40 (group 4) rats at concentrations of 300, 1000 and 3000 ppm respectively (equivalent to an average daily intake of 19, 62 and 179 mg/kg body weight), for not less than 90 days. Forty rats in the control group received the same diet but without the addition of Compound III.
Ten rats (5+5) from each of groups 1 (control) and 4 (3000 ppm) were retained without treatment for 28 days after the end of the main study, as a recovery experiment.

Data set [2] deals with rats. The experiment in a line: Acute oral LD50 in rats. Format: in vivo, rat. The settings on record: for acute oral LD50: rats of both sexes, oral intubation. The procedure:
Compound III was weighed into an Erlenmeyer flask. It was diluted at 30 and 50% with carboxymethylcellulose and administered by oral intubation.
The compound was tested on 40 rats (20 males/20 females). They were 6 to 7 weeks old and weighed 160 to 180 g.
The males and females were segregated and housed in Macrolon cages in groups of 5 in a room kept at a constant temperature of 22 ±1° C. and a relative humidity of approximately 50%. They received water and food ad libitum. The rats were starved during one night before starting the treatment. The doses were 3170, 4640, 6000 and 10,000 mg/kg body weight.

The nature of data set [3]: Milling test, impact-modified suspension PVC (Example 15). The settings on record: 190° C. The procedure:
Experiment 1: A dry blend, consisting of 100 parts by weight of suspension PVC (K-value 58), 1.0 part by weight of wax ester and 0.2 part by weight of montan wax as the lubricant, 1.0 part by weight of acrylic resin as a processing aid, 12.0 parts by weight of MBS modifying resin, as an additive to improve impact strength, and 0.8 part by weight of methyl-tin tris-(myristyl-thioglycollate), corresponding to 0.09 part of tin, is milled on a laboratory mill at 190° C. Every 5 minutes, an 0.3 mm thick piece of film is removed to assess the discolouration.
Experiment 2: The above experiment is repeated with 1.1 parts by weight of the same stabiliser, corresponding to 0.13 part of tin. The very slight yellow discolouration in this case occurs after 20 minutes, and the light yellow discolouration after 25 minutes.

A short description of data set [4]: Heat stability test on laboratory mill (Example 11). The following applies: 190° C., 1.0 part stabiliser per 100 parts suspension PVC, 0.5 part montan wax, 1.0 part monoglycerol ester. The procedure: (§1) A dry blend, consisting of 100 parts of suspension PVC, 0.5 part of montan wax, 1.0 part of monoglycerol ester and 1.0 part of organo-tin stabiliser according to the table below, is milled on a laboratory mill at 190° C. Every 5 minutes, an 0.3 mm thick piece of film is taken off to asist the discolouration.

A short description of data set [5]: Heat stability, bulk-polymerised PVC at 0.15 g Sn/100 g PVC (Example 12). The following applies: 0.3 part montan wax, 0.15 g of Sn/100 g of PVC. The procedure:
as §1
Moulding materials consisting of 100 parts of bulk-polymerised PVC and 0.3 part of montan wax together with the organo-tin stabilisers according to the table which follows are examined for their heat stability, analogously to Example 11. The amounts of stabiliser are calculated to correspond to the use of 0.15 g of Sn/100 g of PVC.

The nature of data set [6]: Milling test, plasticised suspension PVC (Example 14). The following applies: 180° C., 0.5 part by weight stabiliser. The procedure:
A mixture of 100 parts by weight of suspension PVC (K-value 71), 40 parts by weight of di-2-ethylhexyl phthalate, 0.3 part by weight of montan wax and 0.5 part by weight of octyl-tin tris-cetyl-thioglycollate, corresponding to 0.05 g of Sn/100 g of PVC, is milled on a laboratory mill at 180° C. until yellowing beings to occur.

Data set [7] in a line: Milling test, vinyl chloride/vinyl acetate copolymer (Example 13). The following applies: 20 minutes at 180° C., 1.35 g stabiliser, 0.13 g of tin per 100 parts of copolymer. The source says:
100 parts of a vinyl chloride/vinyl acetate copolymer (vinyl acetate content 10%, K-value 60 to 61) are premixed with 0.5 part of montan wax, 1.0 part of monoglycerol ester and an organo-tin stabiliser of the formula C8 H17 Sn(SCH2 COO-n-C16 H33)3. The amount of organo-tin stabiliser (1.35 g) is so chosen that 0.13 g of tin are present per 100 parts of copolymer.

For data set [8] the following is noted: tin content of 49%; known stabiliser; cited from earlier work.
Setting [9] is: 300, 1000 and 3000 ppm in diet, not less than 90 days.
Where [10] appears, read: 0.8 part by weight stabiliser, 0.09 part of tin (Experiment 1).
Setting [11] is: 1.1 parts by weight stabiliser, 0.13 part of tin (Experiment 2).

In the case of `CCCCCCC[CH2][Sn]([CH2]CCCCCCC)([S]CC(=O)OCCCCCC(C)C)[S]CC(=O)OCCCCCC(C)C` [Compound I, (n-C8 H17)2 Sn(SCH2 COO-i-C8 H17)2, reference compound], the “no effect level (dietary concentration)” value in data set [1] (rats, not less than 90 days) is 25 ppm. Also, the “acute oral LD50” value in data set [2] (14 days) is 2000 mg/kg.
As to `CCCCCCC[CH2][Sn]([S]CC(=O)OCCCCCC(C)C)([S]CC(=O)OCCCCCC(C)C)[S]CC(=O)OCCCCCC(C)C` [Compound II, n-C8 H17 Sn(SCH2 COO-i-C8 H17)3, reference compound], the “no effect level (dietary concentration)” value in data set [1] (rats, not less than 90 days) was found to be 500 ppm. In addition, the “acute oral LD50” value in data set [2] (14 days) was found to be 5000 mg/kg.
`CCCCCCCCCCCCCCOC(=O)C[S][Sn]([CH2]CCCCCCC)([S]CC(=O)OCCCCCCCCCCCCCC)[S]CC(=O)OCCCCCCCCCCCCCC` [Compound III, n-C8 H17 Sn(SCH2 COO-n-C14 H29)3]: in data set [1] (setting [9]), the “clinical symptoms, 90-day diet study” value is listed as “no clinical symptoms were recorded” and the “deaths, 90-day diet study” value is “No deaths occured”. Further, the “body weight gains, food consumption, laboratory parameters, organ weight data after recovery” value in data set [1] (group 4 (3000 ppm) versus control, 28 days recovery) was “no significant difference”. Besides, the “histopathological changes after recovery” value in data set [1] (group 4 (3000 ppm), 28 days recovery) is “No histopathological changes were seen”. Besides, the body weight gain entry in data set [1] (male rats, 3000 ppm, following day 14, versus untreated controls) is listed as “gained less body weight than untreated controls”. Besides, in data set [1] (male rats, 3000 ppm, versus untreated control animals), the “body weights at termination of treatment” value was “slightly below those from untreated control animals”. The “no effect level (dietary concentration)” value in data set [1] (rats, not less than 90 days) is reported as 3000 ppm. In data set [1] (rats, equivalent to 3000 ppm in diet, 129600 min), the “no effect level as average daily intake” value was found to be 179 mg/kg body weight. Besides, the feed consumption result in data set [1] (top dose rats (3000 ppm)) was “decreased feed consumption”. Moreover, the “mortality, acute test” value in data set [2] (3170, 4640, 6000 and 10,000 mg/kg body weight, 14 days) is recorded as “No animal died”. Further, the “autopsy findings, acute test” value in data set [2] (killed animals, 3170 to 10,000 mg/kg) is on record as “no substance related gross organ changes were seen”. Also, in data set [2] (rat, oral), the acute toxicity grading entry was “slight acute toxicity”. Besides, the “acute oral LD50” value in data set [2] (14 days) is on record as “greater than 10,000 mg/kg”.
In the case of `CCCCCCCCCCCCCCOC(=O)C[S][Sn]([CH3])([S]CC(=O)OCCCCCCCCCCCCCC)[S]CC(=O)OCCCCCCCCCCCCCC` [Example 1, methyl-tin tris-(myristyl-thioglycollate)], in data set [3] (setting [10]), the “milling time to reach a light yellow discolouration” value is 20 min and the “milling time to reach a very slight yellow discolouration” value came to 15 min. Moreover, in data set [3] (setting [11]), the “milling time to light yellow discolouration” value was determined as 25 min and the “milling time to very slight yellow discolouration” value worked out at 20 min. Besides, the “Heat stability of the moulding material (time to recognisable colour change to light brown-yellow)” value in data set [4] amounted to 25 min.
Consider `CCCCCCCCCCCCOC(=O)C[S][Sn]([CH2]CCC)([S]CC(=O)OCCCCCCCCCCCC)[S]CC(=O)OCCCCCCCCCCCC` [Example 2, butyl-tin tris-(lauryl-thioglycollate)], for which the “Time in minutes for which the films remain colourless” value in data set [5] was 25 min.
Turning to `CCCCCCCCCCCCCCCCOC(=O)C[S][Sn]([CH2]CCC)([S]CC(=O)OCCCCCCCCCCCCCCCC)[S]CC(=O)OCCCCCCCCCCCCCCCC` [Example 3, butyl-tin tris-(cetyl-thioglycollate)], the “Time in minutes for which the films remain colourless” value in data set [5] was 35 min.
Regarding `CCC[CH2][Sn]([S]CC(=O)OCCCCCCCCCCCCCCCC(C)C)([S]CC(=O)OCCCCCCCCCCCCCCCC(C)C)[S]CC(=O)OCCCCCCCCCCCCCCCC(C)C` [Example 8, butyl-tin tris-(i-octadecyl thioglycollate)], the “Time in minutes for which the films remain colourless” value in data set [5] was found to be 30 min.
In the case of `CCCCCCCCCCCCCCCCOC(=O)C[S][Sn]([CH2]CCCCCCC)([S]CC(=O)OCCCCCCCCCCCCCCCC)[S]CC(=O)OCCCCCCCCCCCCCCCC` [Example 10, octyl-tin tris-(cetyl-thioglycollate)], the “time until a very slight yellowing is just detectable” value in data set [6] (0.05 g of Sn/100 g of PVC, 40 parts di-2-ethylhexyl phthalate) was found to be 74 min. Moreover, the “appearance of the mill hide after 105 minutes” value in data set [6] (105 minutes) is on record as “slightly yellow”. In addition, in data set [4], the “Heat stability of the moulding material (time to recognisable colour change to light brown-yellow)” value stood at 25 min. In data set [7], the “yellowing detectable after milling” value is “only very slight yellowing is detectable”.
As for “butyl-tin tris(alfyl(12)-thioglycollate) [Example 4]”, the “Time in minutes for which the films remain colourless” value in data set [5] was found to be 30 min.
In the case of “butyl:tin tris(alfyl(14)-thioglycollate) [Example 5]”, in data set [4], the “Heat stability of the moulding material (time to recognisable colour change to light brown-yellow)” value is 25 min.
For butylthiostannonic acid, the “stabiliser effect relative to tin content” value in data set [8] is given as “relatively slight effect”.
With “octyl-tin tris(alfyl(14)-thioglycollate) [Example 9]”, the “Time in minutes for which the films remain colourless” value in data set [5] was found to be 35 min.
